According to article PMC11769347, “Development of Novel Fluticasone/Salmeterol/Tiotropium-Loaded Dry Powder Inhaler and Bioequivalence Assessment to Commercial Products in Rats” (Pharmaceutics, 2025):

Assays:
Assay type in all cases: physicochemical
[1] = Effect of capsule components on drug stability (degraded compounds by HPLC); settings: in various capsules, 60 °C for 2 weeks; % of the initial amount
Method: The effect of capsule components on the stability of FP, SX, or TB was investigated. The main materials and gelling agent of the capsule are described in Table 2. Each capsule was packed in an aluminum–aluminum blister and stored at 60 °C for 2 weeks. For comparison, commercial products are stored under the same conditions. Degraded compounds of FP, SX, or TB were analyzed as described in Section 2.5.
Degradation compounds of FP, SX, or TB were quantified using a high-performance liquid chromatography (HPLC) system (Hitachi, Tokyo, Japan) comprising a 5110 pump, 5430 detectors, a 5310 column oven, and 5210 autosamplers. While FP and SX were analyzed together, TB was assessed using a separate set of analytical conditions. Inertsil® ODS-2 column (4.6 mm × 250 mm, 5 μm) was used to analyze the degradation compounds of FP and SX. The powder, equivalent to 2.5 mg of FP and 0.725 mg of SX, was introduced into 5 mL of a mixture consisting of phosphoric acid, methanol, and distilled water in a ratio of 0.05:89.95:10. The mixture solution was vortexed for 30 min and passed through a 0.45 μm membrane filter. Fifty microliter aliquots of the filtered solution were injected and detected at 228 nm. […] Fifteen microliter aliquots of the sample solution were injected into the column at 50 °C and monitored at […] with a flow rate of 1.2 mL/min.

[2] = Particle size by laser diffraction (HELOS) after air jet milling
Method: The drug was supplied into a jet mill at a rate of 10 g/min with injection air and grinding air pressures set at among 1–4 bars. The particle size of the micronized TB was measured using high-resolution laser diffraction spectroscopy (HELOS; Sympatec, Clausthal-Zellerfeld, Germany).

[3] = Dissolution of fine particles less than 5 μm in simulated lung fluid; settings: 37 °C, 75 rpm; for dissolved: within 15 min
Method: To collect the fine particles less than 5 μm on a glass fiber filter, abbreviated ACI was used [17, 18]. The micronized FP/SX/TB blend was dispersed at a flow rate of 60 L/min, and 4.0 L of air was withdrawn. The glass fiber filter with collected fine particles was assembled into a filter holder (Copley Scientific, Nottingham, UK). […] The filter holder was placed in a dissolution vessel, and 500 mL of simulated lung fluid was used as dissolution media [19]. The dissolution media was maintained at a temperature of 37 ± 0.5 °C with an agitation speed of 75 rpm. At a predetermined time, 2 mL of the media was collected and diluted with 0.1 M HCl, edetate disodium dihydrate, and methanol to achieve a ratio of 900:50:0.075:50. The diluted solution was filtered through a 0.45 μm PVDC membrane filter and analyzed by HPLC as described in Section 2.5.

[4] = powder without the air jet milling process (as from the manufacturer)

CCC(=O)O[C@]1(C(=O)SCF)[C@H](C)C[C@H]2[C@@H]3C[C@H](F)C4=CC(=O)C=C[C@]4(C)[C@@]3(F)[C@@H](O)C[C@@]21C [FP, fluticasone propionate]
total degraded compound of FP [1]: less than 0.7%
particle size [2, 4]: less than 5 μm
maximum dissolution [3]: approximately 20%

OCc1cc(C(O)CNCCCCCCOCCCCc2ccccc2)ccc1O (stereo not shown) [SX, salmeterol xinafoate]
particle size [2, 4]: less than 5 μm
dissolved [3]: more than 85%

C[N+]1(C)[C@@H]2C[C@@H](OC(=O)C(O)(c3cccs3)c3cccs3)C[C@H]1[C@@H]1O[C@@H]12 [TB, tiotropium bromide]
particle size ([2]; air jet mill condition I: injection air pressure 2 bar, grinding air pressure 1 bar): 3.1 ± 0.3 μm
particle size ([2]; air jet mill condition II: injection air pressure 3 bar, grinding air pressure 2 bar): 2.5 ± 0.1 μm
particle size ([2]; air jet mill condition III: injection air pressure 4 bar, grinding air pressure 3 bar): 1.4 ± 0.3 μm
particle size [2, 4]: 6.1 ± 0.8 μm
dissolved [3]: more than 85%
